Data as given in ChEMBL document CHEMBL1201862, “PubChem BioAssay data set” (2004).
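Step 1: Grow cells in 96-well plates. Step 2: Expose to compound for 48 hours at 5 concentrations. Step 3: Interpolate endpoints linearly; if unreached, use highest concentration. GI50: concentration for 50% inhibition of growth.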 Calls of active or inactive are those of the source. Rule as the data show it: active = GI50 up to about 1.1 µM and inactive = higher.

How the values were obtained:
Experiment in all cases: NCI anticancer screen, dose series, 48 h
[1] = test system: KM-20L2
[2] = test system: M19-MEL
[3] = test system: SNB-78
[4] = test system: BT-549
[5] = test system: DU-145
[6] = test system: MDA-N
[7] = test system: LXFL 529

| SMILES | GI50 [1] | GI50 [2] | GI50 [3] | GI50 [4] | GI50 [5] | GI50 [6] | GI50 [7] |
| --- | --- | --- | --- | --- | --- | --- | --- |
| CCCC[S+]([O-])CC(CO)NC(=O)/C=C/c1c(C)[nH]c(=O)[nH]c1=O (stereo not drawn) | 5.64 µM (inactive) | 2.22 µM (inactive) | – | – | – | – | – |
| N/C(=N\O)N/N=C\c1ccc(O)c(O)c1O | 26.7 µM (inactive) | 20.1 µM (inactive) | > 51.3 µM (inactive) | – | – | – | – |
| S=c1sc2c(s1)SC(c1ccccc1)CS2 (stereo not drawn) | > 100 µM (inactive) | > 100 µM (inactive) | > 100 µM (inactive) | – | – | – | – |
| CCOC(=O)C(O)(NC(=O)c1ccccc1F)C(F)(F)F (stereo not drawn) | – | – | – | > 100 µM (inactive) | > 100 µM (inactive) | > 100 µM (inactive) | – |
| COc1cc([N+](=O)[O-])ccc1N1C(=O)C2c3[nH]c4ccccc4c3C3CCC(C(C)(C)C)CC3C2C1=O (stereo not drawn) | – | – | – | 32 µM (inactive) | > 100 µM (inactive) | 40.6 µM (inactive) | – |
| CCOC(=O)C1=C(C)NC(=O)N([N+](=O)[O-])C1c1ccccc1C(F)(F)F (stereo not drawn) | – | – | – | 54.6 µM (inactive) | 94.2 µM (inactive) | 21.8 µM (inactive) | – |
| CCOC(=O)C1=NN(c2ccc(C)cc2)C2=CC(C)=NN(C)C(=S)N21 | – | – | – | > 100 µM (inactive) | > 100 µM (inactive) | > 100 µM (inactive) | – |
| CSc1nc(NC2OCC(OC(C)=O)C(OC(C)=O)C2OC(C)=O)c(/N=C(\C)C(C)=O)c(=O)[nH]1 (stereo not drawn) | – | – | > 100 µM (inactive) | – | – | – | > 100 µM (inactive) |
| COc1ccc([C@H]2c3cc4c(cc3OC(O)(CO)[C@H]2C(=O)O)OCO4)c(OC)c1.COc1ccc([C@H]2c3cc4c(cc3OC3(O)COC(=O)[C@@H]23)OCO4)c(OC)c1 (stereo partly drawn) | > 100 µM (inactive) | 61.7 µM (inactive) | > 100 µM (inactive) | – | – | – | > 100 µM (inactive) |
| COS(=O)c1cc(Cl)cc(Cl)c1O (stereo not drawn) | – | > 100 µM (inactive) | – | – | – | – | > 100 µM (inactive) |
| O=Nn1c2ccccc2c2cc([N+](=O)[O-])ccc21 | – | – | – | 17.2 µM (inactive) | 14.3 µM (inactive) | 17.2 µM (inactive) | – |
| O=C1c2cc3c(cc2CC1Cc1ccc2c(c1)CCC2)CCC3 (stereo not drawn) | – | – | – | 81.3 µM (inactive) | 54 µM (inactive) | 51.4 µM (inactive) | – |
| CC1(C)OCC(CO)(CO)CO1 | – | – | – | – | > 100 µM (inactive) | > 100 µM (inactive) | – |
| COc1ccc(C(=O)C2CC3(CCC2(O)c2ccc(OC)cc2)CC(=O)Nc2ccccc2C3=O)cc1 (stereo not drawn) | – | – | – | > 100 µM (inactive) | > 100 µM (inactive) | > 100 µM (inactive) | – |
| CCOC(=O)Cc1cnc(NC(NC(=O)CC)(C(F)(F)F)C(F)(F)F)s1 | – | – | – | > 100 µM (inactive) | > 100 µM (inactive) | > 100 µM (inactive) | – |
| CNC(=O)OC(C)CN1c2ccccc2Sc2ccc(Cl)cc21 (stereo not drawn) | – | – | – | – | > 10 µM (inactive) | > 10 µM (inactive) | – |
| COc1cc(/N=N\c2cccc(S(=O)(=O)O)c2)ccc1/N=N\c1ccc(/C=C/c2ccc(-n3on3-c3ccc(/C=C/c4ccc(/N=N/c5ccc(/N=N\c6cccc(S(=O)(=O)O)c6)cc5OC)cc4S(=O)(=O)O)c(S(=O)(=O)O)c3)cc2S(=O)(=O)O)c(S(=O)(=O)O)c1 | > 100 µM (inactive) | > 100 µM (inactive) | > 100 µM (inactive) | – | – | – | – |
| COc1cc(C2c3cc4c(cc3[C@@H](Nc3ccc(Oc5ccccc5)cc3)C3COC(=O)[C@H]23)OCO4)cc(OC)c1O (stereo partly drawn) | 1.17 µM (inactive) | 4.36 µM (inactive) | > 61 µM (inactive) | – | – | – | – |
| Oc1nc2ccccc2c2oc3ccccc3c12 | – | – | – | > 100 µM (inactive) | > 100 µM (inactive) | > 100 µM (inactive) | – |
